Assay results: article doi:10.1101/2024.08.19.608619, “Discovery of potent SARS-CoV-2 nsp3 macrodomain inhibitors uncovers lack of translation to cellular antiviral response” (bioRxiv, 2024)
Where two headings read alike, the source gives them in different places.

Experiments:
Assay in all cases: biochemical
Design in all cases: In vitro kinase panel profiling, per cent remaining kinase activity at 10 uM
AMPKα1(h) = target: T1, AMPKα1(h) (Homo sapiens, UniProt Q13131); settings: atp_concentration=45, read-out: % of control remaining
T1 construct: gene PRKAA1
From the text: (§1) We derisk potential for off-target activity by profiling the compound in a CEREP panel, a standard secondary pharmacology assessment, as well as a kinase panel to derisk a potential hinge-binding motif in our leads, and a PARP panel to derisk activity against human […]. Reassuringly, the compounds are selective, with the only off-targets being moderate human CHRM2 and KOR receptors activity associated with ASAP-0011198.

Abl(h) = target: T2, Abl(h) (Homo sapiens, UniProt P00519); settings: atp_concentration=45, read-out: % of control remaining
T2 construct: gene ABL1
From the text: as §1

CDK7/cyclinH/MAT1(h) = CDK7/cyclinH/MAT1(h) (Homo sapiens, UniProt P50613); settings: atp_concentration=90, read-out: % of control remaining
From the text: as §1

CaMKI(h) = target: T3, CaMKI(h) (Homo sapiens, UniProt Q14012); settings: atp_concentration=200, read-out: % of control remaining
T3 construct: gene CAMK1
From the text: as §1

EGFR(h) = EGFR(h) (Homo sapiens, UniProt P00533); settings: atp_concentration=10, read-out: % of control remaining
From the text: as §1

EphA5(h) = EphA5(h) (Homo sapiens, UniProt P54756); settings: atp_concentration=10, read-out: % of control remaining
From the text: as §1

Fyn(h) = Fyn(h) (Homo sapiens, UniProt P06241); settings: atp_concentration=70, read-out: % of control remaining
From the text: as §1

JAK2(h) = JAK2(h) (Homo sapiens, UniProt O60674); settings: atp_concentration=45, read-out: % of control remaining
From the text: as §1

MST1(h) = target: T4, MST1(h) (Homo sapiens, UniProt Q13043); settings: atp_concentration=90, read-out: % of control remaining
T4 construct: gene STK4
T4 sequence (Q13043 1-487): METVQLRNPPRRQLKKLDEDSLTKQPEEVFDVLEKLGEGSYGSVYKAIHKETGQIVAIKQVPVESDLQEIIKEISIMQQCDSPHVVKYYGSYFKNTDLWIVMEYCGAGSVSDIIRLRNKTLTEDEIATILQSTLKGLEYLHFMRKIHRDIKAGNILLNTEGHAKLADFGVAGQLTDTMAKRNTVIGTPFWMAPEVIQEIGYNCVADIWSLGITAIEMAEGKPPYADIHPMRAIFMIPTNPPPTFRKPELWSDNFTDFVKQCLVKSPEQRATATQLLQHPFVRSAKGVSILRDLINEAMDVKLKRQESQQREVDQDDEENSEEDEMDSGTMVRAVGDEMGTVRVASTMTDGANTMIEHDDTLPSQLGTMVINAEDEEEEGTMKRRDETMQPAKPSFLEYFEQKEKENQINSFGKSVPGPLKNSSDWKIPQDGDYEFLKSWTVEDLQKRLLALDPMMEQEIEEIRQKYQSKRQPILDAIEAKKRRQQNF
From the text: as §1

Mnk2(h) = target: T5, Mnk2(h) (Homo sapiens, UniProt Q9HBH9); settings: atp_concentration=120, read-out: % of control remaining
T5 construct: gene MKNK2
From the text: as §1

PAK2(h) = PAK2(h) (Homo sapiens, UniProt Q13177); settings: atp_concentration=90, read-out: % of control remaining
From the text: as §1

[1] = target: T6, PI3 Kinase (p110α/p85α)(h) (Homo sapiens, UniProt P42336); settings: atp_concentration=200, read-out: % of control remaining
T6 construct: gene PIK3CA
From the text: as §1

[2] = target: T7, PI3 Kinase (p110β/p85α)(h) (Homo sapiens, UniProt P42338); settings: atp_concentration=200, read-out: % of control remaining
T7 construct: gene PIK3CB
From the text: as §1

PI3 Kinase (p120γ)(h) = target: T8, PI3 Kinase (p120γ)(h) (Homo sapiens, UniProt P48736); settings: atp_concentration=100, read-out: % of control remaining
T8 construct: gene PIK3CG
From the text: as §1

Pim-1(h) = target: T9, Pim-1(h) (Homo sapiens, UniProt P11309); settings: atp_concentration=90, read-out: % of control remaining
T9 construct: gene PIM1
From the text: as §1

T1 sequence (Q13131 whole entry): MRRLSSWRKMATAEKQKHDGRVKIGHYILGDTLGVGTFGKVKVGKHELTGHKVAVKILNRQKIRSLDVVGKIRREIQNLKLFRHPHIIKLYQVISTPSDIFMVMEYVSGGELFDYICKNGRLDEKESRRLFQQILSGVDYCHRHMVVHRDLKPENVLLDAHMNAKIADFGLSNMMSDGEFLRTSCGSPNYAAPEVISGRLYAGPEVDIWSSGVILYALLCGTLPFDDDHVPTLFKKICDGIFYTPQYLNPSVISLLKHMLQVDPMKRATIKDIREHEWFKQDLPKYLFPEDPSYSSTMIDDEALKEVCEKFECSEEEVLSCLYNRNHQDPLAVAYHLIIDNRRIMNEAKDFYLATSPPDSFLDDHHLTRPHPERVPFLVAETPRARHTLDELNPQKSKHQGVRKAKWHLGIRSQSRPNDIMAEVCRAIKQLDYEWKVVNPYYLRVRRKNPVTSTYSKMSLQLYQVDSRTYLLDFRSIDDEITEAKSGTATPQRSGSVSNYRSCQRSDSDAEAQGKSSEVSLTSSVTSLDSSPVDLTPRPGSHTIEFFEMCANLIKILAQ
T1 sequence (P54619 whole entry partner): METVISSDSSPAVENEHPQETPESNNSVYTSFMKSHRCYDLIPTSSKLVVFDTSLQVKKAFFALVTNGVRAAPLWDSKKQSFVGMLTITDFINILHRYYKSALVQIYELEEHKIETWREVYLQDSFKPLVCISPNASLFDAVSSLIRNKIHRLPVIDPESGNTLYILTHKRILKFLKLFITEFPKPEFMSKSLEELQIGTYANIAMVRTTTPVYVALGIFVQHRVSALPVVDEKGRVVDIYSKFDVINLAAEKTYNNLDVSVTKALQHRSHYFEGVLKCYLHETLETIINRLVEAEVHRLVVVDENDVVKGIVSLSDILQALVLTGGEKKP
T1 sequence (Q9Y478 whole entry partner): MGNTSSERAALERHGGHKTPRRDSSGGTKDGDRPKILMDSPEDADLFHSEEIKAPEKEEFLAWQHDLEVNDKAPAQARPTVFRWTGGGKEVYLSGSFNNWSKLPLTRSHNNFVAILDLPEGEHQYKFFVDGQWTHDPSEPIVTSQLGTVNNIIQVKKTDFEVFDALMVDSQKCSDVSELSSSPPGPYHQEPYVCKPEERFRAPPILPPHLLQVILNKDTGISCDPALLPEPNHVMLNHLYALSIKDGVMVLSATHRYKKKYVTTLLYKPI
Chain of PAK2(h) (Q13177 whole entry): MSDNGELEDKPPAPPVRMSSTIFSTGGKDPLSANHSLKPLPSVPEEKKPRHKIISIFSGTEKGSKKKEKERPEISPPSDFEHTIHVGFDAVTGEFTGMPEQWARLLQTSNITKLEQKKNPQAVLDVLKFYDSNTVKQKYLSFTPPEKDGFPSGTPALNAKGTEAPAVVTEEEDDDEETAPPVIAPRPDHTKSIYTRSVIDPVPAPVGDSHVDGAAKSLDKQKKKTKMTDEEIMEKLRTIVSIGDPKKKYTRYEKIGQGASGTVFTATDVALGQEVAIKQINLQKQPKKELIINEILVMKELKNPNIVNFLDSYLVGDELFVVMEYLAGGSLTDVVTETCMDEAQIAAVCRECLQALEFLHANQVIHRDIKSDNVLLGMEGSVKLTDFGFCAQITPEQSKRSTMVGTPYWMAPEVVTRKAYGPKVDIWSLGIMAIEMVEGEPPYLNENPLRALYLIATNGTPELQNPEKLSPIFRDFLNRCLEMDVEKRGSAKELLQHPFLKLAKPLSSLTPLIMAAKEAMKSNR
T3 sequence (Q14012 whole entry): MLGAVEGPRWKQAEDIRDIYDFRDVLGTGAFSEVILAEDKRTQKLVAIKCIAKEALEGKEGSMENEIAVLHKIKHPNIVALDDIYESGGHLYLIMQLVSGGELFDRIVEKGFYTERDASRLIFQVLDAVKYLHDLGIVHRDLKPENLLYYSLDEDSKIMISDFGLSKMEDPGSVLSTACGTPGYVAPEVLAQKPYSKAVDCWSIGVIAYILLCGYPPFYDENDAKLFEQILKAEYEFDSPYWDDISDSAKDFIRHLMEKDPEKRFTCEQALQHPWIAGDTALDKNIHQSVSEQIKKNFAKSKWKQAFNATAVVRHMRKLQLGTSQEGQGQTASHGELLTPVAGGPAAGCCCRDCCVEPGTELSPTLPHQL
Chain of Fyn(h) (P06241 whole entry): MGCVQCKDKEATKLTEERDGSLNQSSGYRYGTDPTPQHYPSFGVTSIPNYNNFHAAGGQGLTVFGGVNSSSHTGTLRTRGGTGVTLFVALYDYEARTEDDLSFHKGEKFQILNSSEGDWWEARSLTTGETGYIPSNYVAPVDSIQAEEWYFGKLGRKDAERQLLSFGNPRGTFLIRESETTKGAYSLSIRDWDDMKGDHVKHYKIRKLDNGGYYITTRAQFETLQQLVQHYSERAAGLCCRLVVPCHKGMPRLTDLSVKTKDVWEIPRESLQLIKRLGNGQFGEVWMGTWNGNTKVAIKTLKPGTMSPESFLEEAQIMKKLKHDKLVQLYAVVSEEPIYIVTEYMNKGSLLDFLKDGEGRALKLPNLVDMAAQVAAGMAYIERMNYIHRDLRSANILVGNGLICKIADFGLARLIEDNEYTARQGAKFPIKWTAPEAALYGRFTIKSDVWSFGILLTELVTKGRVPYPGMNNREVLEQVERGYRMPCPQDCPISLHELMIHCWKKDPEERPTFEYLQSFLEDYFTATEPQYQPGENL
T2 sequence (P00519 whole entry): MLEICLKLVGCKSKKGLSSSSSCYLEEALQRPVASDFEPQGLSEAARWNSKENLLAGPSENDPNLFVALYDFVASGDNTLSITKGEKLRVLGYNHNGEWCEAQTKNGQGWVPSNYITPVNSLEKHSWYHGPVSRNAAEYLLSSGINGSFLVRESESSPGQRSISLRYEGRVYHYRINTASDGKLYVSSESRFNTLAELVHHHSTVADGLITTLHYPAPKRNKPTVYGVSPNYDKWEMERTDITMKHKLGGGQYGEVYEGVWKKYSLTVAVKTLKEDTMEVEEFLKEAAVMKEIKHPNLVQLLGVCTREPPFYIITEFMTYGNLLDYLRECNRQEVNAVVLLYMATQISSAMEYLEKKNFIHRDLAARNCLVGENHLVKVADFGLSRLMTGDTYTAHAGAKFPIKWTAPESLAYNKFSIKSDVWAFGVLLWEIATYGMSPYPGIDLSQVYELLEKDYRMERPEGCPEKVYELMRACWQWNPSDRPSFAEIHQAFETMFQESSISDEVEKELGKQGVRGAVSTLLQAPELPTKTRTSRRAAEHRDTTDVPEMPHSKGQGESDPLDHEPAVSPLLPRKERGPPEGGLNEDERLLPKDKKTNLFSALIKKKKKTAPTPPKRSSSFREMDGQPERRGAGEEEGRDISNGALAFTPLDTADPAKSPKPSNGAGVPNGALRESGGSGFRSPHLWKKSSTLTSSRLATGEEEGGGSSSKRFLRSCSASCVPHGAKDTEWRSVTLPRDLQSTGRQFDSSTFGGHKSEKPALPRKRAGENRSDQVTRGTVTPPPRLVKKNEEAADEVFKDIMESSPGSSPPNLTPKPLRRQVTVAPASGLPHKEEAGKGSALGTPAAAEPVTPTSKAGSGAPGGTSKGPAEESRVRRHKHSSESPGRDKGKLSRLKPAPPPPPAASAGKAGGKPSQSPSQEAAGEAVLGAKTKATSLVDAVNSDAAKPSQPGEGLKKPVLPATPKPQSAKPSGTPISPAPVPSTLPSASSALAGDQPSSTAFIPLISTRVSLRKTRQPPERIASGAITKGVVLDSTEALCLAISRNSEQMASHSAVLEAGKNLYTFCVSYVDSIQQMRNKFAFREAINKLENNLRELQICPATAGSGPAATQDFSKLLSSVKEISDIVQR
T5 sequence (Q9HBH9 whole entry): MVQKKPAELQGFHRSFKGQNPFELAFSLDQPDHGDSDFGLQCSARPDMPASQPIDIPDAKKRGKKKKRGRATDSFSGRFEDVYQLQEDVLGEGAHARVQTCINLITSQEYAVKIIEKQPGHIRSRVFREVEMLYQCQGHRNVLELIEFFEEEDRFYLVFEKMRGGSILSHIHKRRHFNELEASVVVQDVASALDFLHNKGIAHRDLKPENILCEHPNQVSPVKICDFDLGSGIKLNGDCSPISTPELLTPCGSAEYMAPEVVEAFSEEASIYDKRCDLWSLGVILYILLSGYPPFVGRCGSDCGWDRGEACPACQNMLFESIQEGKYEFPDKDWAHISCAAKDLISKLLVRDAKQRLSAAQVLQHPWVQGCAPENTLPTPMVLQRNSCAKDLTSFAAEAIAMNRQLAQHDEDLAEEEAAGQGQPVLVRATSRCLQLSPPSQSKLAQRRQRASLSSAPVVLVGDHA
T9 sequence (P11309 whole entry): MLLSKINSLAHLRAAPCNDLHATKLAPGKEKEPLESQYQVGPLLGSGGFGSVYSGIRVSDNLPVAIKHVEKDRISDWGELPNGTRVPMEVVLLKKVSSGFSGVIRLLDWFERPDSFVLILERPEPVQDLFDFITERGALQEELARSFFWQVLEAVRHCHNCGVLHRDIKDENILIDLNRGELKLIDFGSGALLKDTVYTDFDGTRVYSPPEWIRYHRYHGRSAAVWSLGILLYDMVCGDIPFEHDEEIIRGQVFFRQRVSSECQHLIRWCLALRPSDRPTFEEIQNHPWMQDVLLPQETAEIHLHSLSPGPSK

CC(C)[C@H](Nc1ncnc2[nH]ccc12)c1ccc2c(c1)S(=O)(=O)CCC2 [ASAP-0008674]
remaining activity at 10 µM (AMPKα1(h); batch_name=ASAP-0008674-002): 104% | remaining activity at 10 µM (Abl(h); batch_name=ASAP-0008674-002): 105% | remaining activity at 10 µM (CDK7/cyclinH/MAT1(h); batch_name=ASAP-0008674-002): 89% | remaining activity at 10 µM (CaMKI(h); batch_name=ASAP-0008674-002): 92% | remaining activity at 10 µM (EGFR(h); batch_name=ASAP-0008674-002): 95% | remaining activity at 10 µM (EphA5(h); batch_name=ASAP-0008674-002): 102% | remaining activity at 10 µM (Fyn(h); batch_name=ASAP-0008674-002): 96% | remaining activity at 10 µM (JAK2(h); batch_name=ASAP-0008674-002): 99% | remaining activity at 10 µM (MST1(h); batch_name=ASAP-0008674-002): 126% | remaining activity at 10 µM (Mnk2(h); batch_name=ASAP-0008674-002): 98% | remaining activity at 10 µM (PAK2(h); batch_name=ASAP-0008674-002): 102% | remaining activity at 10 µM ([1]; batch_name=ASAP-0008674-002): 94% | remaining activity at 10 µM ([2]; batch_name=ASAP-0008674-002): 100% | remaining activity at 10 µM (PI3 Kinase (p120γ)(h); batch_name=ASAP-0008674-002): 98% | remaining activity at 10 µM (Pim-1(h); batch_name=ASAP-0008674-002): 91%

Cc1nn(C)cc1-c1cc2c(NC(c3ccc4c(c3)S(=O)(=O)CCC4)C(C)C)ncnc2[nH]1 (stereo not drawn) [ASAP-0011446]
remaining activity at 10 µM (AMPKα1(h); batch_name=ASAP-0011446-002): 102% | remaining activity at 10 µM (Abl(h); batch_name=ASAP-0011446-002): 76% | remaining activity at 10 µM (CDK7/cyclinH/MAT1(h); batch_name=ASAP-0011446-002): 93% | remaining activity at 10 µM (CaMKI(h); batch_name=ASAP-0011446-002): 101% | remaining activity at 10 µM (EGFR(h); batch_name=ASAP-0011446-002): 87% | remaining activity at 10 µM (EphA5(h); batch_name=ASAP-0011446-002): 74% | remaining activity at 10 µM (Fyn(h); batch_name=ASAP-0011446-002): 32% | remaining activity at 10 µM (JAK2(h); batch_name=ASAP-0011446-002): 111% | remaining activity at 10 µM (MST1(h); batch_name=ASAP-0011446-002): 115% | remaining activity at 10 µM (Mnk2(h); batch_name=ASAP-0011446-002): 99% | remaining activity at 10 µM (PAK2(h); batch_name=ASAP-0011446-002): 100% | remaining activity at 10 µM ([1]; batch_name=ASAP-0011446-002): 102% | remaining activity at 10 µM ([2]; batch_name=ASAP-0011446-002): 105% | remaining activity at 10 µM (PI3 Kinase (p120γ)(h); batch_name=ASAP-0011446-002): 96% | remaining activity at 10 µM (Pim-1(h); batch_name=ASAP-0011446-002): 95%

CC(C)[C@@H](Nc1ncnc2[nH]c(-c3cnn(C)c3C#N)cc12)c1ccc2c(n1)OCCO2 [ASAP-0008418]
remaining activity at 10 µM (AMPKα1(h); batch_name=ASAP-0008418-001): 116% | remaining activity at 10 µM (Abl(h); batch_name=ASAP-0008418-001): 52% | remaining activity at 10 µM (CDK7/cyclinH/MAT1(h); batch_name=ASAP-0008418-001): 101% | remaining activity at 10 µM (CaMKI(h); batch_name=ASAP-0008418-001): 104% | remaining activity at 10 µM (EGFR(h); batch_name=ASAP-0008418-001): 81% | remaining activity at 10 µM (EphA5(h); batch_name=ASAP-0008418-001): 91% | remaining activity at 10 µM (Fyn(h); batch_name=ASAP-0008418-001): 56% | remaining activity at 10 µM (JAK2(h); batch_name=ASAP-0008418-001): 101% | remaining activity at 10 µM (MST1(h); batch_name=ASAP-0008418-001): 103% | remaining activity at 10 µM (Mnk2(h); batch_name=ASAP-0008418-001): 77% | remaining activity at 10 µM (PAK2(h); batch_name=ASAP-0008418-001): 95% | remaining activity at 10 µM ([1]; batch_name=ASAP-0008418-001): 49% | remaining activity at 10 µM ([2]; batch_name=ASAP-0008418-001): 92% | remaining activity at 10 µM (PI3 Kinase (p120γ)(h); batch_name=ASAP-0008418-001): 63% | remaining activity at 10 µM (Pim-1(h); batch_name=ASAP-0008418-001): 79%
